{"source": "paper PMC5717343", "about": "(Open Biology, 2017)", "tested_on": "PrP^Sc in iPK1/2 cells", "type": "cell-based", "data": [{"substance": "dextran sulfate", "values": [{"measurement": "concentration of apparent curing", "result": "greater than 1 × 10^−6 M"}, {"measurement": "effect on PrP^Sc levels / prion infection (curing)", "result": "dose-dependent decrease in PrP^Sc"}, {"measurement": "IC50", "setting": "read-out: apparent IC50, reduction of PrP^Sc", "result": "~500", "unit": "nM"}]}]}
